Where a name gives a salt, the structure may show the parent alone.
Tested on: mouse partial sciatic nerve ligation model (neuropathic pain)
Assay: Mouse partial sciatic nerve ligation model (Seltzer model), von Frey test
Type: in vivo
Conditions: for dose from which a statistically significant analgesic action started / persistence of analgesic action / time of strongest analgesic action after oral administration: oral administration; for dose from which a statistically significant analgesic action started: von Frey test; for persistence of analgesic action / time of strongest analgesic action after oral administration: von Frey test at 1, 2, 3 h
Procedure: The mouse partial sciatic nerve ligation model was prepared in accordance with the method of Seltzer et al. (Malmberg et al., Pain, vol. 76, p. 215-222, 1998).
Slc: ICR mice (5 weeks old, male; from Japan SLC, Inc.) or Cr1: CD1 (ICR) mice (5 weeks old, male; from CHARLES RIVER LABORATORIES JAPAN, INC.) were anesthetized with sodium pentobarbital (70 mg/kg, intraperitoneal administration). The sciatic nerve at the femoral region of the right hind paw of each mouse was exposed and triply ligated tightly with silk suture of 8-0 (from NATSUME SEISAKUSHO CO., LTD.) under a stereomicroscope so that only half thickness of the nerve was trapped in the ligature. A group of mice thus treated was designated as a partial sciatic nerve ligation group. A group of mice whose sciatic nerve was just exposed and not ligated was designated as a sham surgery group.
Evaluation of neuropathic pain (hereinafter referred to as von Frey test) was performed as follows. Mice were conditioned for at least one hour in an acrylic cage for measurement (from NATSUME SEISAKUSHO CO. LTD. or SHINANO SEISAKUSHO) placed on a wire net. Thereafter, using a filament (from North Coast Medical or neuroscience) which exerted a pressure of 0.16 g, the mice were subjected to mechanical tactile stimulus by applying the filament to the plantar surface of the right hind paw 3 times, each for 3 seconds, with an interval of 3 seconds.
Seven days after the sciatic nerve ligation surgery, the compound of Example 1, 2, 3, 4, 5, 7, 8, 9, 10, 11, 12 or 13 (10 mg/kg for each of the compounds of Example 1, 2, 3, 4, 5, 8, 10 and 13, 0.01 to 1 mg/kg for the compound of Example 7, 0.01 to 10 mg/kg for the compound of Example 9; 0.001 to 0.1 mg/kg for the compound of Example 11; and 0.01 to 1 mg/kg for the compound of Example 12) or pregabalin as a positive control (10 mg/kg; Bosche Scientific) was dissolved in distilled water and orally administered to mice of the partial sciatic nerve ligation group. The groups of the mice in the partial sciatic nerve ligation mouse to which the compound of Example 1, 2, 3, 4, 5, 7, 8, 9, 10, 11, 12 or 13 was administered were designated as a “partial sciatic nerve ligation+the compound of Example 1” group; a “partial sciatic nerve ligation+the compound of Example 2” group; a “partial sciatic nerve ligation+the compound of Example 3” group; a “partial sciatic nerve ligation+the compound of Example 4” group; a “partial sciatic nerve ligation+the compound of Example 5” group; a “partial sciatic nerve ligation+the compound of Example 7” group; a “partial sciatic nerve ligation+the compound of Example 8” group; a “partial sciatic nerve ligation+the compound of Example 9” group; a “partial sciatic nerve ligation+the compound of Example 10” group; a “partial sciatic nerve ligation+the compound of Example 11” group; a “partial sciatic nerve ligation+the compound of Example 12” group; and a “partial sciatic nerve ligation+the compound of Example 13” group, respectively. The partial sciatic nerve ligation mouse group to which pregabalin was administered was designated as a “partial sciatic nerve ligation+pregabalin” group. A group wherein distilled water was orally administered to the mice of the partial sciatic nerve ligation group was designated as a “partial sciatic nerve ligation+distilled water” group. A group wherein distilled water was orally administered to the mice of the sham surgery group was designated as a “sham surgery+distilled water” group.
The von Frey test was carried out before oral administration of a test compound (pre-value), one hour, two hours, and three hours after the oral administration of a test compound.
Slc: ICR mice (5 weeks old, male; Japan SLC, Inc.) were anesthetized with sodium pentobarbital (70 mg/kg, intraperitoneal administration).

SMILES	dose from which a statistically significant analgesic action started	persistence of analgesic action	time of strongest analgesic action after oral administration	time the analgesic action lasted after oral administration (dose of 0.1 mg/kg)	time the analgesic action lasted after oral administration (from a dose of 0.001 mg/kg)	analgesic action in von Frey test (total score) (mouse, in vivo)
CN(C)C1CCN(C(=O)CCc2nccn2C)CC1 [Comparative Example 1, 1-(4-(dimethylamino)piperidin-1-yl)-3-(1-methyl-1H-imidazol-2-yl)propan-1-one hydrochloride]	10 µg/kg	tended to decrease 2 hours and 3 hours later	one			
CC(C)n1ccnc1CCC(=O)N1CCC(N(C)C)CC1 [Comparative Example 6, 1-(4-(dimethylamino)piperidin-1-yl)-3-(1-isopropyl-1H-imidazol-2-yl)propan-1-one hydrochloride]		tended to decrease 2 hours and 3 hours later	one			
CN(C)C1CCN(C(=O)C[C@H](O)c2nccn2C)CC1 [Example 11, (S)-1-(4-(dimethylamino)piperidin-1-yl)-3-hydroxy-3-(1-methyl-1H-imidazol-2-yl)propan-1-one]	1 µg/kg			3 h	2 h	statistically significant analgesic action

From US10173999B2, “Cyclic amine derivative and pharmaceutical use thereof” (Toray Industries, Inc., priority 2015, dated 2019)
